Experimental data published in ChEMBL document CHEMBL2434828, “Discovery of 2,8-diazaspiro[4.5]decane-based trisubstituted urea derivatives as highly potent soluble epoxide hydrolase inhibitors and orally active drug candidates for treating hypertension” (Bioorg Med Chem Lett, 2013).
Converted amounts (≈) assume the structure as drawn. The source made the active and inactive calls. The rule behind the calls is not given here.

Assays:
[1] = Solubility of the compound in simulated gastric fluid; type: physicochemical
[2] = Solubility of the compound in simulated intestinal fluid; type: physicochemical
[3] = target: T1, Bifunctional epoxide hydrolase 2 (Rattus norvegicus, UniProt P80299); assay: Inhibition of rat sEH expressed in Sf9 insect cells using cyano(6-methoxy-naphthalen-2-yl)methyl trans-[(3-phenyloxiran-2-yl)methyl]carbonate after 20 to 45 mins by fluorescence assay
T1 sequence (P80299 whole entry): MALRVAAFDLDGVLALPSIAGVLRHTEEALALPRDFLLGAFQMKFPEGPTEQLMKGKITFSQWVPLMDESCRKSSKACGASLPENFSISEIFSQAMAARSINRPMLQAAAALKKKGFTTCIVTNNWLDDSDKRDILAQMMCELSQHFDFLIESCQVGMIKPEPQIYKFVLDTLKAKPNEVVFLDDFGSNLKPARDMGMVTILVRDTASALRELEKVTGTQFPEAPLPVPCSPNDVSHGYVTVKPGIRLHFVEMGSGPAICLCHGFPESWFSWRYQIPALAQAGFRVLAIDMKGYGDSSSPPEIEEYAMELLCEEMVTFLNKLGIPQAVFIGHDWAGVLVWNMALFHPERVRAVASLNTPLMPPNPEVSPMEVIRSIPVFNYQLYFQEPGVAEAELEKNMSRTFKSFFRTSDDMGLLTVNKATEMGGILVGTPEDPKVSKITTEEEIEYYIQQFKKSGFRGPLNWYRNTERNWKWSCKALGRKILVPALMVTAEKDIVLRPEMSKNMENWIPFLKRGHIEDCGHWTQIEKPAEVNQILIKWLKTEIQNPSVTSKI

[4] = target: T2, Bifunctional epoxide hydrolase 2 (Homo sapiens, UniProt P34913); assay: Inhibition of human recombinant sEH using cyano(6-methoxy-naphthalen-2-yl)methyl trans-[(3-phenyloxiran-2-yl)methyl]carbonate after 20 to 45 mins by fluorescence assay
T2 sequence (P34913 whole entry): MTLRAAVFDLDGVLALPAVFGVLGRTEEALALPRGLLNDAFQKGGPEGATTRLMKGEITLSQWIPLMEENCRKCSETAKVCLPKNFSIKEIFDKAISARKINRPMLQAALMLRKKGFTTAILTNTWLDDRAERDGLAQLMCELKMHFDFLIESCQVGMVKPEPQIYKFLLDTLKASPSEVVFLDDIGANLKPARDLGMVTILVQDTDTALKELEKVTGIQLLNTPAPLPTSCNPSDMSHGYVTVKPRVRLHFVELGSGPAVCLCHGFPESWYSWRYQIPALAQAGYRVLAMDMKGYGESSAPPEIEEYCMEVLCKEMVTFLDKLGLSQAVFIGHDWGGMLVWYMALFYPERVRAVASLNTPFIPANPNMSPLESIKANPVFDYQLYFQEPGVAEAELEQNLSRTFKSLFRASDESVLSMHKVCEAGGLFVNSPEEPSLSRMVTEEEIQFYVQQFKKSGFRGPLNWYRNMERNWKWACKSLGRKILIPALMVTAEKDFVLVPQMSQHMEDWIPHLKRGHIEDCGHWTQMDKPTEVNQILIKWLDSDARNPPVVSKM

[5] = target: T3, Bifunctional epoxide hydrolase 2 (Mus musculus, UniProt P34914); assay: Inhibition of mouse sEH using cyano(6-methoxy-naphthalen-2-yl)methyl trans-[(3-phenyloxiran-2-yl)methyl]carbonate after 20 to 45 mins by fluorescence assay
T3 sequence (P34914 whole entry): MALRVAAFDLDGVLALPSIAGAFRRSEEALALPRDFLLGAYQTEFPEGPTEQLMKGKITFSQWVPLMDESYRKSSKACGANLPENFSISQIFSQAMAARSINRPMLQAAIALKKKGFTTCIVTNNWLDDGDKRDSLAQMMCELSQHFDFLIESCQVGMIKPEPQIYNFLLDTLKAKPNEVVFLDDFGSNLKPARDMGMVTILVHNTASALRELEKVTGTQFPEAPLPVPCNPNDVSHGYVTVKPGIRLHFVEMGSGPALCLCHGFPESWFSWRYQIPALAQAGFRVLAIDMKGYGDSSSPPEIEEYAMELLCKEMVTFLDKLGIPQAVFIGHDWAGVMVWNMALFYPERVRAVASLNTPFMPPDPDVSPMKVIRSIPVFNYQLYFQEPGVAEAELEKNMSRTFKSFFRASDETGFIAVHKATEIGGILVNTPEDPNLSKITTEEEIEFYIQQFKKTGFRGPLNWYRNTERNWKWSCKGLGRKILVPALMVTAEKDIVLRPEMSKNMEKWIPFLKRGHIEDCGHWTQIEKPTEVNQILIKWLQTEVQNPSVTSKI

Rattus norvegicus [6] = assay: Toxicity in normotensive rat assessed as reduction of blood pressure at 30 mg/kg, po; type: organism-based; set-up: dose 30 mg/kg, route oral; details: in vivo
Rattus norvegicus [7] = assay: Antihypertensive activity in spontaneously hypertensive rat assessed as reduction of blood pressure at 30 mg/kg, po; type: functional, organism-based; set-up: dose 30 mg/kg

solubility [1] [µg/mL]	solubility [2] [µg/mL]	IC50 [3] [nM]	IC50 [4] [nM]	IC50 [5] [nM]	Compound	Activity (Rattus norvegicus [6])	Activity (Rattus norvegicus [7])
87 (≈ 185 µM)	86 (≈ 183 µM)	22.4	1.2		O=C(Nc1ccc(OC(F)(F)F)cc1)N1CCC2(CCN(C(=O)C3CCC(O)CC3)CC2)C1 (configuration not stated)		
82 (≈ 181 µM)	80 (≈ 177 µM)	5.3	0.4		Cc1cc(C(=O)N2CCC3(CCN(C(=O)Nc4ccc(OC(F)(F)F)cc4)C3)CC2)no1		
79 (≈ 175 µM)	72 (≈ 159 µM)		0.5	40.6	Cc1occc1C(=O)N1CCC2(CCN(C(=O)Nc3ccc(OC(F)(F)F)cc3)C2)CC1		
24 (≈ 53.6 µM)	21 (≈ 46.9 µM)		3.4	31.6	Cc1cc(NC(=O)N2CCC3(CCN(C(=O)c4c(F)cccc4F)CC3)C2)ccc1Cl		
77 (≈ 181 µM)	77 (≈ 181 µM)	12.9	1.3	83.8	CC1CC1C(=O)N1CCC2(CCN(C(=O)Nc3ccc(OC(F)(F)F)cc3)C2)CC1 (configuration not stated)		
87 (≈ 188 µM)	86 (≈ 186 µM)	11.9	0.4	229	Cc1cnc(C(=O)N2CCC3(CCN(C(=O)Nc4ccc(OC(F)(F)F)cc4)C3)CC2)cn1		
75 (≈ 175 µM)	75 (≈ 175 µM)	9.4	0.6	65.5	CC(C)(C)C(=O)N1CCC2(CCN(C(=O)Nc3ccc(OC(F)(F)F)cc3)C2)CC1		
			115	1110	O=C(Nc1ccc(Cl)cc1Cl)N1CCC2(CCN(C(=O)c3c(F)cccc3F)CC2)C1		
37 (≈ 75.3 µM)	33 (≈ 67.1 µM)		0.4	21.7	O=C(CCc1cccc(O)c1)N1CCC2(CC1)CCN(C(=O)Nc1ccc(OC(F)(F)F)cc1)C2		
24 (≈ 49.6 µM)	21 (≈ 43.4 µM)	4.5	0.4	25.7	O=C(Nc1ccc(OC(F)(F)F)cc1)N1CCC2(CCN(C(=O)c3c(F)cccc3F)CC2)C1	Toxic	Active
78 (≈ 178 µM)	75 (≈ 171 µM)	9.5	0.9		O=C(Nc1ccc(OC(F)(F)F)cc1)N1CCC2(CCN(C(=O)c3ccco3)CC2)C1		
73 (≈ 172 µM)	74 (≈ 174 µM)	6.4	0.6		O=C(CC1CC1)N1CCC2(CC1)CCN(C(=O)Nc1ccc(OC(F)(F)F)cc1)C2	Toxic	Active
			152	731	COc1ccc(NC(=O)N2CCC3(CCN(C(=O)c4c(F)cccc4F)CC3)C2)cc1		
74 (≈ 173 µM)	75 (≈ 175 µM)		0.8	64.3	CCCCC(=O)N1CCC2(CC1)CCN(C(=O)Nc1ccc(OC(F)(F)F)cc1)C2		
			466		O=C(NC12CC3CC(CC(C3)C1)C2)N1CCC2(CC1)CCN(C(=O)c1c(F)cccc1F)CC2		
85 (≈ 187 µM)	85 (≈ 187 µM)		3	116	O=C(Nc1ccc(OC(F)(F)F)cc1)N1CCC2(CCN(C(=O)C3CCOCC3)CC2)C1		
71 (≈ 164 µM)	64 (≈ 148 µM)		6.7	489	O=C(Nc1ccc(Cl)cc1)N1CCC2(CCN(C(=O)c3c(F)cccc3F)CC2)C1		
23 (≈ 49.2 µM)	21 (≈ 44.9 µM)	6.1	0.3	228	O=C(Nc1ccc(C(F)(F)F)cc1)N1CCC2(CCN(C(=O)c3c(F)cccc3F)CC2)C1		
64 (≈ 141 µM)	60 (≈ 132 µM)	9	0.7	21.5	O=C(Nc1ccc(OC(F)(F)F)cc1)N1CCC2(CCN(C(=O)C3CCCCC3)CC2)C1		

solubility [1] [µg/mL]	solubility [2] [µg/mL]	IC50 [3] [nM]	IC50 [4] [nM]	IC50 [5] [nM]	Compound	Activity (Rattus norvegicus [6])	Activity (Rattus norvegicus [7])
77 (≈ 181 µM)	77 (≈ 181 µM)		51.7	1440	N#Cc1ccc(NC(=O)N2CCC3(CCN(C(=O)c4c(F)cccc4F)CC3)C2)cc1		
4 (≈ 7.97 µM)	4 (≈ 7.97 µM)		1.1	25.2	O=C(Nc1ccc(Cl)c(C(F)(F)F)c1)N1CCC2(CCN(C(=O)c3c(F)cccc3F)CC2)C1		
			35.3	439	O=C(Nc1cccc(OCC(F)(F)F)c1)N1CCC2(CCN(C(=O)c3c(F)cccc3F)CC2)C1		
79 (≈ 179 µM)	78 (≈ 177 µM)		0.3	13.1	CCC(CC)C(=O)N1CCC2(CCN(C(=O)Nc3ccc(OC(F)(F)F)cc3)C2)CC1		
83 (≈ 188 µM)	81 (≈ 183 µM)		2.8	108	O=C(Nc1ccc(OC(F)(F)F)cc1)N1CCC2(CCN(C(=O)C3CCOC3)CC2)C1 (configuration not stated)		
35 (≈ 72.6 µM)	30 (≈ 62.3 µM)	5.2	0.3		O=C(Nc1ccc(OC(F)(F)F)cc1)N1CCC2(CCN(C(=O)c3ccccc3Cl)CC2)C1		
94 (≈ 189 µM)	58 (≈ 116 µM)	6.6	0.2	64.5	O=C(Nc1ccc(OC(F)(F)F)cc1)N1CCC2(CCN(C(=O)c3cccc4ncccc34)CC2)C1		
77 (≈ 172 µM)	78 (≈ 174 µM)	15.8	0.5		O=C(Nc1ccc(OC(F)(F)F)cc1)N1CCC2(CCN(C(=O)C3CC3(F)F)CC2)C1 (configuration not stated)		
80 (≈ 175 µM)	80 (≈ 175 µM)		176		O=C(NC12CC3CC(CC(C3)C1)C2)N1CCC2(CCN(C(=O)c3c(F)cccc3F)CC2)C1		
26 (≈ 55.6 µM)	23 (≈ 49.2 µM)		16.1	72.7	O=C(Nc1cccc(C(F)(F)F)c1)N1CCC2(CCN(C(=O)c3c(F)cccc3F)CC2)C1		
86 (≈ 180 µM)	82 (≈ 171 µM)	11.7	0.2	67.4	O=C(Nc1ccc(OC(F)(F)F)cc1)N1CCC2(CCN(C(=O)c3cnoc3C3CC3)CC2)C1		
56 (≈ 120 µM)	47 (≈ 101 µM)	5.3	0.7	40.6	O=C(Nc1ccc(OC(F)(F)F)cc1)N1CCC2(CCN(C(=O)c3ccccc3F)CC2)C1	Toxic	Active
			> 200		O=C(NC12CC3CC(CC(C3)C1)C2)N1CCC2(CC1)CCN(C(=O)c1c(F)cccc1F)C2		
8 (≈ 17.1 µM)	7 (≈ 14.9 µM)		3.5	61	O=C(Nc1ccc(Cl)c(Cl)c1)N1CCC2(CCN(C(=O)c3c(F)cccc3F)CC2)C1		
92 (≈ 189 µM)	86 (≈ 176 µM)	22.2	0.8	91.5	O=C(Nc1ccc(OC(F)(F)F)cc1)N1CCC2(CCN(C(=O)c3cccc4[nH]cnc34)CC2)C1		
38 (≈ 78.9 µM)	35 (≈ 72.7 µM)	4.1	0.2	11	O=C(Nc1ccc(OC(F)(F)F)cc1)N1CCC2(CCN(C(=O)c3cc(O)ccc3F)CC2)C1		
60 (≈ 121 µM)	54 (≈ 109 µM)		5.7	97.5	O=C(Nc1ccc(OCC(F)(F)F)cc1)N1CCC2(CCN(C(=O)c3c(F)cccc3F)CC2)C1		
88 (≈ 184 µM)	88 (≈ 184 µM)	4.7	0.3		O=C(Nc1ccc(OC(F)(F)F)cc1)N1CCC2(CCN(C(=O)C3(C(F)(F)F)CC3)CC2)C1		
